The values below come from patent US12404262B2 (priority 2021, dated 2025).

The nature of series [1]: Solubility in simulated intestinal fluids (FaSSIF/FeSSIF). Particulars: 25 °C, thermodynamic from solid.
The conditions of series [2]: 1.0% DMSO, 24-hour incubation at ambient temperature, maximum theoretical 100 μM; for pH 2 solubility: 0.1N HCl, first value of the cell; for pH 7 solubility: 1×PBS buffer (pH 7.4), second value of the cell.
The mark [3] stands for this setting: fasted state simulated intestinal fluid (FaSSIF), fassif.
Setting [4] is: fed state simulated intestinal fluid (FeSSIF), fessif.

Structures are written as SMILES. In brackets after ≈: the same amount, converted by molar mass.

As to `CC(C)(C#Cc1ccc(-c2ccc(Cl)c3c(N(C(=O)N[C@@H](CCC(=O)O)C(=O)O)S(C)(=O)=O)nn(CC(F)(F)F)c23)c([C@H](Cc2cc(F)cc(F)c2)NC(=O)Cn2nc(C(F)(F)F)c3c2C(F)(F)[C@@H]2C[C@H]32)n1)S(C)(=O)=O` [Compound 68, ((4-chloro-7-(2-((S)-1-(2-((3bS,4aR)-5,5-difluoro-3-(trifluoromethyl)-3b,4,4a,5-tetrahydro-1H-cyclopropa[3,4]cyclopenta[1,2-c]pyrazol-1-yl)acetamido)-2-(3,5-difluorophenyl)ethyl)-6-(3-methyl-3-(methylsulfonyl)but-1-yn-1-yl)pyridin-3-yl)-1-(2,2,2-trifluoroethyl)-1H-indazol-3-yl)(methylsulfonyl)carbamoyl)-L-glutamic acid], the concentration in solution in series [1] (setting [3]) (solubility) came to 700 µg/mL (≈ 613 µM). For the same compound, the solubility in series [1] (setting [4]) is 246 µg/mL (≈ 216 µM). In addition, in series [2], the “pH 2 solubility” value was 1 μM and the “pH 7 solubility” value is given as 18 μM.

With `CC(C)(C#Cc1ccc(-c2ccc(Cl)c3c(N(C(=O)OC(CC(=O)O)CC(=O)O)S(C)(=O)=O)nn(CC(F)(F)F)c23)c([C@H](Cc2cc(F)cc(F)c2)NC(=O)Cn2nc(C(F)(F)F)c3c2C(F)(F)[C@@H]2C[C@H]32)n1)S(C)(=O)=O` [Compound 125, 3-(((4-chloro-7-(2-((S)-1-(2-((3bS,4aR)-5,5-difluoro-3-(trifluoromethyl)-3b,4,4a,5-tetrahydro-1H-cyclopropa[3,4]cyclopenta[1,2-c]pyrazol-1-yl)acetamido)-2-(3,5-difluorophenyl)ethyl)-6-(3-methyl-3-(methylsulfonyl)but-1-yn-1-yl)pyridin-3-yl)-1-(2,2,2-trifluoroethyl)-1H-indazol-3-yl)(methylsulfonyl)carbamoyl)oxy)pentanedioic acid], the solubility is 617 µg/mL (≈ 540 µM) in series [1] (setting [3]) and 42 µg/mL (≈ 36.8 µM) in series [1] (setting [4]). Also, the “pH 2 solubility” value in series [2] is on record as 14 μM. Besides, the “pH 7 solubility” value in series [2] came to 68 μM.

For the compound `CC(C)(C#Cc1ccc(-c2ccc(Cl)c3c(N(C(=O)NCCNC(=N)N)S(C)(=O)=O)nn(CC(F)(F)F)c23)c([C@H](Cc2cc(F)cc(F)c2)NC(=O)Cn2nc(C(F)(F)F)c3c2C(F)(F)[C@@H]2C[C@H]32)n1)S(C)(=O)=O` [Compound 76], the solubility in series [1] (setting [3]) was 7 µg/mL (≈ 6.38 µM); in series [1] (setting [4]), 68 µg/mL (≈ 62 µM).

On to `CC(C)(C#Cc1ccc(-c2ccc(Cl)c3c(N(C(=O)NCCN4CCNCC4)S(C)(=O)=O)nn(CC(F)(F)F)c23)c([C@H](Cc2cc(F)cc(F)c2)NC(=O)Cn2nc(C(F)(F)F)c3c2C(F)(F)[C@@H]2C[C@H]32)n1)S(C)(=O)=O` [Compound 73, N—((S)-1-(3-(4-chloro-3-(N-((2-(piperazin-1-yl)ethyl)carbamoyl)methylsulfonamido)-1-(2,2,2-trifluoroethyl)-1H-indazol-7-yl)-6-(3-methyl-3-(methylsulfonyl)but-1-yn-1-yl)pyridin-2-yl)-2-(3,5-difluorophenyl)ethyl)-2-((3bS,4aR)-5,5-difluoro-3-(trifluoromethyl)-3b,4,4a,5-tetrahydro-1H-cyclopropa[3,4]cyclopenta[1,2-c]pyrazol-1-yl)acetamide], for which, in series [2], the “pH 2 solubility” value is 72 μM and the “pH 7 solubility” value amounted to 16 μM.

Consider `CC(C)(C#Cc1ccc(-c2ccc(Cl)c3c(N(C(=O)NCCCP(=O)(O)O)S(C)(=O)=O)nn(CC(F)(F)F)c23)c([C@H](Cc2cc(F)cc(F)c2)NC(=O)Cn2nc(C(F)(F)F)c3c2C(F)(F)[C@@H]2C[C@H]32)n1)S(C)(=O)=O` [Compound 54-1, (3-(3-(4-chloro-7-(2-((S)-1-(2-((3bS,4aR)-5,5-difluoro-3-(trifluoromethyl)-3b,4,4a,5-tetrahydro-1H-cyclopropa[3,4]cyclopenta[1,2-c]pyrazol-1-yl)acetamido)-2-(3,5-difluorophenyl)ethyl)-6-(3-methyl-3-(methylsulfonyl)but-1-yn-1-yl)pyridin-3-yl)-1-(2,2,2-trifluoroethyl)-1H-indazol-3-yl)-3-(methylsulfonyl)ureido)propyl)phosphonic acid], for which, in series [2], the “pH 2 solubility” value is recorded as 1 μM and the “pH 7 solubility” value was determined as 14 μM.

With `CN(CC(C)(C)O)C(=O)N(c1nn(CC(F)(F)F)c2c(-c3ccc(C#CC(C)(C)S(C)(=O)=O)nc3[C@H](Cc3cc(F)cc(F)c3)NC(=O)Cn3nc(C(F)(F)F)c4c3C(F)(F)[C@@H]3C[C@H]43)ccc(Cl)c12)S(C)(=O)=O` [Compound 47, N—((S)-1-(3-(4-chloro-3-(N-((2-hydroxy-2-methylpropyl)(methyl)carbamoyl)methylsulfonamido)-1-(2,2,2-trifluoroethyl)-1H-indazol-7-yl)-6-(3-methyl-3-(methylsulfonyl)but-1-yn-1-yl)pyridin-2-yl)-2-(3,5-difluorophenyl)ethyl)-2-((3bS,4aR)-5,5-difluoro-3-(trifluoromethyl)-3b,4,4a,5-tetrahydro-1H-cyclopropa[3,4]cyclopenta[1,2-c]pyrazol-1-yl)acetamide], in series [2], the “pH 2 solubility” value is listed as 1/1 μM and the “pH 7 solubility” value is given as 1/1 μM.

Consider `CC(C)[C@H](N)C(=O)OCN(c1nn(CC(F)(F)F)c2c(-c3ccc(C#CC(C)(C)S(C)(=O)=O)nc3[C@H](Cc3cc(F)cc(F)c3)NC(=O)Cn3nc(C(F)(F)F)c4c3C(F)(F)[C@@H]3C[C@H]43)ccc(Cl)c12)S(C)(=O)=O` [Compound 28, (N-(4-chloro-7-(2-((S)-1-(2-((3bS,4aR)-5,5-difluoro-3-(trifluoromethyl)-3b,4,4a,5-tetrahydro-1H-cyclopropa[3,4]cyclopenta[1,2-c]pyrazol-1-yl)acetamido)-2-(3,5-difluorophenyl)ethyl)-6-(3-methyl-3-(methylsulfonyl)but-1-yn-1-yl)pyridin-3-yl)-1-(2,2,2-trifluoroethyl)-1H-indazol-3-yl)methylsulfonamido)methyl L-valinate], for which, in series [2], the “pH 2 solubility” value stood at 29 μM and the “pH 7 solubility” value stood at 1 μM.

With `CC(C)(C#Cc1ccc(-c2ccc(Cl)c3c(N(C(=O)CCN4CCNCC4)S(C)(=O)=O)nn(CC(F)(F)F)c23)c([C@H](Cc2cc(F)cc(F)c2)NC(=O)Cn2nc(C(F)(F)F)c3c2C(F)(F)[C@@H]2C[C@H]32)n1)S(C)(=O)=O` [Compound 9, N-(4-chloro-7-(2-((S)-1-(2-((3bS,4aR)-5,5-difluoro-3-(trifluoromethyl)-3b,4,4a,5-tetrahydro-1H-cyclopropa[3,4]cyclopenta[1,2-c]pyrazol-1-yl)acetamido)-2-(3,5-difluorophenyl)ethyl)-6-(3-methyl-3-(methylsulfonyl)but-1-yn-1-yl)pyridin-3-yl)-1-(2,2,2-trifluoroethyl)-1H-indazol-3-yl)-N-(methylsulfonyl)-3-(piperazin-1-yl)propanamide], in series [2], the “pH 2 solubility” value was found to be 2 μM and the “pH 7 solubility” value was 21 μM.

On to `CC(C)(C#Cc1ccc(-c2ccc(Cl)c3c(N(C(=O)OCCOP(=O)(O)O)S(C)(=O)=O)nn(CC(F)(F)F)c23)c([C@H](Cc2cc(F)cc(F)c2)NC(=O)Cn2nc(C(F)(F)F)c3c2C(F)(F)[C@@H]2C[C@H]32)n1)S(C)(=O)=O` [Compound 100, 2-(phosphonooxy)ethyl (4-chloro-7-(2-((S)-1-(2-((3bS,4aR)-5,5-difluoro-3-(trifluoromethyl)-3b,4,4a,5-tetrahydro-1H-cyclopropa[3,4]cyclopenta[1,2-c]pyrazol-1-yl)acetamido)-2-(3,5-difluorophenyl)ethyl)-6-(3-methyl-3-(methylsulfonyl)but-1-yn-1-yl)pyridin-3-yl)-1-(2,2,2-trifluoroethyl)-1H-indazol-3-yl)(methylsulfonyl)carbamate], for which, in series [2], the “pH 2 solubility” value stood at 2 μM and the “pH 7 solubility” value amounted to 100 μM.

`C[C@@H](C(=O)OCN(c1nn(CC(F)(F)F)c2c(-c3ccc(C#CC(C)(C)S(C)(=O)=O)nc3[C@H](Cc3cc(F)cc(F)c3)NC(=O)Cn3nc(C(F)(F)F)c4c3C(F)(F)[C@@H]3C[C@H]43)ccc(Cl)c12)S(C)(=O)=O)N(C)C` [Compound 22, (N-(4-chloro-7-(2-((S)-1-(2-((3bS,4aR)-5,5-difluoro-3-(trifluoromethyl)-3b,4,4a,5-tetrahydro-1H-cyclopropa[3,4]cyclopenta[1,2-c]pyrazol-1-yl)acetamido)-2-(3,5-difluorophenyl)ethyl)-6-(3-methyl-3-(methylsulfonyl)but-1-yn-1-yl)pyridin-3-yl)-1-(2,2,2-trifluoroethyl)-1H-indazol-3-yl)methylsulfonamido)methyl dimethyl-L-alaninate]: in series [2], the “pH 2 solubility” value was 45 μM and the “pH 7 solubility” value was determined as 3 μM.

Take `CC(C)(C#Cc1ccc(-c2ccc(Cl)c3c(N(C(=O)OCCCOP(=O)(O)O)S(C)(=O)=O)nn(CC(F)(F)F)c23)c([C@H](Cc2cc(F)cc(F)c2)NC(=O)Cn2nc(C(F)(F)F)c3c2C(F)(F)[C@@H]2C[C@H]32)n1)S(C)(=O)=O` [Compound 98, 3-(phosphonooxy)propyl (4-chloro-7-(2-((S)-1-(2-((3bS,4aR)-5,5-difluoro-3-(trifluoromethyl)-3b,4,4a,5-tetrahydro-1H-cyclopropa[3,4]cyclopenta[1,2-c]pyrazol-1-yl)acetamido)-2-(3,5-difluorophenyl)ethyl)-6-(3-methyl-3-(methylsulfonyl)but-1-yn-1-yl)pyridin-3-yl)-1-(2,2,2-trifluoroethyl)-1H-indazol-3-yl)(methylsulfonyl)carbamate]: in series [2], the “pH 2 solubility” value was 1 μM and the “pH 7 solubility” value is listed as 100 μM.
